Key:
[1] = Cyclic voltammetry, reduction of nitro group; format: physicochemical; conditions: for −EpaIII: anodic peak potential of couple IIIc/IIIa; for −EpaIII / −EpcIII / −E1/2: given with inverted sign, vs. Ag/AgCl electrode in DMSO; for −EpcIII: cathodic peak potential of couple IIIc/IIIa; for Ipa/Ipc: current ratio RNO2/RNO2•−, couple IIIc/IIIa, DMSO; for −E1/2: half-wave potential of couple IIIc/IIIa
Description: Cyclic Voltammetry (CV) was carried out using a Metrohm Autolab instrument model PGSTAT204, using dimethyl sulfoxide (DMSO) as the solvent (1 mM solutions), tetrabutylammonium perchlorate (0.1 M TBAP) as the supporting electrolyte, a hanging drop mercury electrode (HDME) as the working electrode, Ag/AgCl (3M KCl) as the reference electrode, and a graphite rod as the counter electrode. All measurements were performed after bubbling with nitrogen (N2) for 10 min.
Using Nicholson’s procedure, the Ipa/Ipc values (RNO2/RNO2^•−) were measured from each cyclic voltammogram with a scan rate between 0.1 and 2.5 V/s.

RAW 264.7 cells [2] = test: Cytotoxicity MTT assay on RAW 264.7 cells; format: cell-based; conditions: murine RAW 264.7 macrophages
Description: The compounds under study, dissolved in dimethylsulfoxide (DMSO), were added to the culture media at 10–200 μM. RAW 264.7 cells were cultured in 96-well plates (5 × 10^4 cells per well), and 100 μL of 0.5 mg/mL MTT was added to each well. The DMSO final concentration was less than 0.1% v/v. After incubation for 4 h at 37 °C, the generated water-insoluble formazan dye was dissolved by adding 100 μL of 10% w/v sodium dodecyl sulfate (SDS) in 0.01 M HCl. The plates were further incubated overnight at 37 °C; […] 0.5% of Triton X-100 was added as a positive control. The plates were further incubated overnight at 37 °C, and the optical density of the wells was determined using a microplate reader (Asys Expert Plus©, Asys Hitachi, Vienna, Austria) at 570 nm. Under these conditions, the optical density is directly proportional to the viable cell number in each well. All experiments were performed at least thrice and data were reported as means and their standard deviations from triplicate cultures. Results are reported as IC50 regarding the control (uninfected cells in culture medium)

[3] = test system: T. cruzi epimastigote stage (Dm28c strain); test: Epimastigotes viability study (MTT); format: cell-based, Trypanosoma cruzi; conditions: for IC50: T. cruzi Dm28c epimastigotes, 24 h, MTT; for SI Epimastigote: Selectivity Index IC50 macrophages RAW 264.7/IC50 epimastigotes Dm28c
Description: The trypanocidal activity was evaluated against the T. cruzi epimastigote stage (Dm28c strain). It was measured through the MTT assay using 0.22 mg/mL phenazine methosulfate (as an electron carrier). T. cruzi epimastigote from the author's collection (Programa de Farmacología Molecular y Clínica, Facultad de Medicina, Universidad de Chile, Santiago, Chile) were grown at 28 °C in liver infusion tryptase (LIT) medium, as reported earlier, but replacing blood with 4 μM hemin. […] fetal bovine serum (FBS) was added to a final concentration of 10% v/v. In this colorimetric assay for testing the trypanocidal activity, the compounds were dissolved in DMSO. They were added to 3 × 10^6 parasites/mL at 100 μM final concentrations in RPMI 1640 culture medium without phenol red for 24 h at 28 °C. The final concentration of DMSO was less than 0.1% v/v. […] The MTT assay, which was described previously, determined the viability of the epimastigotes.

Dm28c trypomastigotes [4] = test: Trypomastigote viability study (MTT); format: cell-based, Trypanosoma cruzi; conditions: for IC50: T. cruzi Dm28c trypomastigotes, 24 h, MTT
Description: Vero cells (ATCC CCL-81) were infected with Dm28c trypomastigotes at a 1:3 (cell: parasite) ratio. T. cruzi trypomastigotes were initially obtained from primary cultures of peritoneal macrophage from chagasic mice. […] Vero cell cultures were then infected with trypomastigotes and incubated at 37 °C in humidified air and 5% CO2 for 5–7 days. After that time, the culture medium was collected and centrifuged at 500× g for 5 min. The trypomastigote-containing pellet was re-suspended in RPMI 1640 supplemented with inactivated FBS and penicillin–streptomycin at a final 1 × 10^7 parasites/mL density. Trypomastigote viability assays were performed using the MTT reduction method as described previously. Then, 1 × 10^7 parasites/mL was incubated in RPMI 1640 with inactivated FBS at 37 °C for 24 h with or without the studied compounds.

RAW 264.7 cells [5] = test: Plasma membrane permeability (SYTOX Green) of RAW 264.7 cells; format: cell-based, murine
CL-B5 epimastigotes = test system: CL-B5 epimastigotes; design: method as in PMID 23124218; conditions: cited from earlier work
[6] = test system: trypomastigotes of T. cruzi; test: Plasmatic membrane permeability assay (SYTOX Green) on trypomastigotes; format: cell-based, Trypanosoma cruzi; conditions: compound at IC50, 1 h
Description: Late growth-phase trypomastigotes of T. cruzi (3 × 10^6/well) were washed and incubated in the dark with 1 μM SYTOX Green probe (Molecular Probes) in HANKS′ balanced salts solution (HBSS; Sigma-Aldrich) supplemented with 10 mM D-glucose (HBSS + Glu). The test compound was added at IC50, and fluorescence was measured after 1 h of treatment. The maximum permeabilization was obtained with 0.5% Triton X-100. Fluorescence intensity was determined using Varioskan™ LUX multimode microplate reader (ThermoFisher Scientific, Waltham, MA, USA), with excitation and emission wavelengths of 485 and 520 nm, respectively. The following internal controls were used in the evaluation: (i) the background fluorescence of the compound at the respective wavelengths and (ii) the possible interference of DMSO. Samples were tested in triplicate.

[7] = test system: Dm28c trypomastigote of T. cruzi; test: Mitochondrial membrane potential (TMRM incorporation); format: cell-based, Trypanosoma cruzi; conditions: trypomastigotes, compound at IC50, 3 h; compared to negative control
Description: Mitochondrial membrane potential (ψm) was determined by the incorporation of the fluorescent probe tetramethylrhodamine methyl ester (TMRM). […] Then, carbonylcyanide-m-chlorophenylhydrazone (CCCP, 10 µM) was added as a control and incubated at 37 °C in humidified air and 5% CO2 for 3 h. Parasites were washed with phosphate-buffered saline (pH 7.4), and suspensions were incubated with TMRM (50 nM) for 15 min. Fluorescence measurements determined the incorporation of the probe at an excitation wavelength of 550 nm and an emission of 590 nm. All the assays were performed in darkness.

[8] = test system: trypomastigote form of T. cruzi; test: Analysis of ATP levels (CellTiter-Glo); format: cell-based, Trypanosoma cruzi; conditions: trypomastigotes; relative to negative control
Description: The CellTiter-Glo® Luminescent Cell Viability Assay (Promega, Fitchburg, WI, USA) was used to detect variations in ATP levels. After incubation, treated parasites were centrifuged (6000 rpm, 10 min, 4 °C) and treated according to the manufacturer’s instructions. Luminescence was determined using the Varioskan™ LUX multi-mode microplate reader (ThermoFisher Scientific). Results were expressed as a percentage relative to the negative control without treatment. Sodium azide (20 mM NaN3 for 3 h) was added as a positive control and benznidazole as a reference treatment. (1) %relative control=luminescence sample/luminescence control∗100

Dm28c trypomastigotes [9] = test: Intracellular ROS generation (DCFH2-DA); format: cell-based, Trypanosoma cruzi; conditions: compound at IC50, 40 min
Description: ROS detection was performed using the 2′, 7′-dichlorodihydrofluorescein diacetate (DCFH2-DA) method. For Dm28c trypomastigotes, 96-well plates were seeded with 10 × 10^6 trypomastigotes/mL in RPMI medium without phenol red and supplemented with 5% SFBi. Cultures were incubated with a 20 μM DCFH2-DA solution for 15 min at 37 °C. Then, they were centrifuged at 6000 rpm and washed 2 times with phosphate-buffered saline at pH 7.4. The DCFH2-DA-loaded trypomastigotes were then transferred to a Nunc® fluorescence 96-well plate. […] The area under fluorescence increase over time curves were determined using Origin 8 software 9.2, with areas normalized to control. Results are the means ± SD of three independent experiments.

[10] = test system: trypomastigote form of T. cruzi (Dm28c strain); test: ESR spin trapping with DMPO in parasite media; format: cell-based, Trypanosoma cruzi; conditions: trypomastigotes, NADPH, aerobic conditions
Description: The free radical production capacity of the new complexes was assessed in the parasite by ESR using 5,5- dimethyl-1-pirroline-N-oxide (DMPO) for spin trapping. Each tested compound was dissolved in DMSO (spectroscopy grade) (ca. 1 mM) and the solution was added to a mixture containing the trypomastigote form of T. cruzi (Dm28c strain, final protein concentration 4–8 mg/mL) and DMPO (final concentration 250 mM). The mixture was transferred to a 50 μL capillary. ESR spectra were recorded in the X band (9.85 GHz) using a Bruker ECS 106 spectrometer with a rectangular cavity and 50 KHz field modulation. All the spectra were registered in the same scale after 15 scans.

[11] = Mus musculus, RAW264.7, in vitro cytotoxicity

| SMILES | −EpaIII [1] [V] | −EpcIII [1] [V] | Ipa/Ipc [1] | −E1/2 [1] [V] | IC50 (RAW 264.7 cells [2]; [11]) [µM] | IC50 ([3]; Trypanosoma cruzi) [µM] | IC50 (Dm28c trypomastigotes [4]; Trypanosoma cruzi) [µM] | trypanocidal activity against CL-B5 epimastigotes (CL-B5 epimastigotes) | SI Epimastigote [3] | also measured |
| --- | --- | --- | --- | --- | --- | --- | --- | --- | --- | --- |
| COc1ccccc1Cn1c(=O)c2cc([N+](=O)[O-])ccc2n1C [Compound 15, 2-(2-Methoxybenzyl)-1-methyl-5-nitro-1,2-dihydro-3H-indazol-3-one] | 1.04 | 1.16 | 0.96 | 1.10 | 36.3 ± 1.1 | > 100 | > 100 |  |  | effect on plasma membrane permeability (SYTOX Green incorporation) (RAW 264.7 cells [5]): significantly affect permeability; melting point: 210 to 212 °C |
| CCCn1c2ccc([N+](=O)[O-])cc2c(=O)n1Cc1ccccc1 [Compound 2a] |  |  |  |  |  |  |  | effective against CL-B5 epimastigotes |  |  |
| Cn1c2ccc([N+](=O)[O-])cc2c(=O)n1Cc1ccccc1 [Compound 1] | 1.02 | 1.12 | 0.94 | 1.07 | 37.8 ± 1.2 | 10.1 ± 0.6 | > 100 | effective against CL-B5 epimastigotes | 3.7 |  |
| CC(C)n1c2ccc([N+](=O)[O-])cc2c(=O)n1Cc1ccccc1 [Compound 2b] |  |  |  |  |  |  |  | effective against CL-B5 epimastigotes |  |  |
| O=c1c2cc([N+](=O)[O-])ccc2[nH]n1Cc1ccccn1 [Compound 5a, 5-nitro-2-picolyl-indazolin-3-one] | 1.32 | 1.36 | 0.62 | 1.34 |  |  |  |  | 62.6 | IC50 (RAW 264.7 cells [2]; in vitro cytotoxicity): 68.9 ± 0.7 µM; IC50 [3]: 1.1 ± 0.3 µM; SI Trypomastigote (Dm28c trypomastigotes [4]; Selectivity Index IC50 macrophages RAW 264.7/IC50 trypomastigotes Dm28c): 12.8; IC50 (Dm28c trypomastigotes [4]): 5.4 ± 0.7 µM; alteration of plasma membrane permeability (SYTOX Green incorporation) [6]: alter plasma membrane permeability; effect on mitochondrial membrane potential (ψm) [7]: statistically significant impact; ATP levels [8]: significantly reduced ATP levels; intracellular ROS (DCF fluorescence intensity) (Dm28c trypomastigotes [9]): most significant increase in fluorescence intensity; radical species detected by DMPO spin trapping [10]: generation of the hydroxyl radical |

Reference: article PMC11508334, “In Vitro Evaluation of New 5-Nitroindazolin-3-one Derivatives as Promising Agents against Trypanosoma cruzi” (International Journal of Molecular Sciences, 2024)
